Test results reported in patent US20040022842A1, “Liposome preparations containing oxaliplatin” (Mebiopharm Co., Ltd., priority 2002, published 2004).

Tested on: Colon 26 cells
Assay: Cytotoxicity of oxaliplatin (L-OHP) liposomes against tumor cells, WST-1 assay (Example 7), Colon 26
Format: cell-based
Details: Colon 26 and AsPC-1 cells; comparison of L-OHP solution and liposome preparations
Protocol: Colon 26 cells and AsPC-1 cells were inoculated on a 96-well plate at 5×10^3 cells per well and pre-incubated with 5% CO2 overnight.
The cells were incubated at 37° C. under 5% CO2 for 4 hours. The test solutions were removed, and the incubation was continued for an additional 2 days, at which time the number of living cells was counted. Cell viability was determined according to the WST-1 assay.
According to the WST-1 assay, the assay solution contained 5 mmol/L WST-1 reagent (10 μL); 20 mmol/L HEPES; 1-methoxy-PMS at 0.2 mmol/L, at pH 7.4. This solution was added to each well, mixed thoroughly, and incubated in a CO2 incubator for 2 hours to allow for color development. The absorbance was then measured on a plate reader at 400-450 nm, with a reference wavelength of >600 nm.

SMILES: O=C1[O][Pt]2([NH]C3CCCCC3[NH]2)[O]C1=O [L-OHP solution, Oxaliplatin]
- relative cytotoxicity in words: showed the highest toxicity
